{"source": "patent US4034092A", "about": "“7-Acyl-3-(carboxyalkyl and carbamoylalkyl substituted oxadiazolylthiomethyl) cephalosporins” (SmithKline Corporation, priority 1976, dated 1977)", "key": {"Shigella HH 117": {"tested_on": "Shigella HH 117", "test": "in vitro MIC testing, Shigella HH 117", "assay_type": "cell-based", "conditions": "HH117", "procedure": "(§1) The compounds of Formula I have exceptional antibacterial activity against both Gram-positive and Gram-negative organisms. Minimum inhibitory concentrations (MIC's) range from 0.2 to >200 μg./ml. in in vitro testing. Test results for the compound 7-D-mandelamido-3-(5-carboxymethyl-1,3,4-oxadiazol-2-ylthiomethyl)-3-cephem-4-carboxylic acid and its disodium salt, respectively, are given below: […]"}, "S. villaluz SK 70390": {"tested_on": "S. villaluz SK 70390", "test": "in vitro MIC testing, S. villaluz SK 70390", "assay_type": "cell-based", "procedure": "as §1"}, "E. coli SK 12140": {"tested_on": "E. coli SK 12140", "test": "in vitro MIC testing, E. coli SK 12140", "assay_type": "cell-based", "conditions": "Escherichia coli, SK12140", "procedure": "as §1"}, "Salmonella ATCC 12176": {"tested_on": "Salmonella ATCC 12176", "test": "in vitro MIC testing, Salmonella ATCC 12176", "assay_type": "cell-based", "conditions": "ATCC12176", "procedure": "as §1"}, "S. aureus SK 23390": {"tested_on": "S. aureus SK 23390", "test": "in vitro MIC testing, S. aureus SK 23390", "assay_type": "cell-based", "conditions": "Staphylococcus aureus, SK23390", "procedure": "as §1"}, "Strep. faecalis HH 34358": {"tested_on": "Strep. faecalis HH 34358", "test": "in vitro MIC testing, Strep. faecalis HH 34358", "assay_type": "cell-based", "conditions": "Enterococcus faecalis, HH34358", "procedure": "as §1"}, "E. coli HH 33779": {"tested_on": "E. coli HH 33779", "test": "in vitro MIC testing, E. coli HH 33779", "assay_type": "cell-based", "conditions": "Escherichia coli, HH33779", "procedure": "as §1"}, "S. aureus HH 125": {"tested_on": "S. aureus HH 125", "test": "in vitro MIC testing, S. aureus HH 125", "assay_type": "cell-based", "conditions": "Staphylococcus aureus, HH125", "procedure": "as §1"}, "[1]": {"tested_on": "Serratia marc. ATCC 13880", "test": "in vitro MIC testing, Serratia marc. ATCC 13880", "assay_type": "cell-based", "conditions": "ATCC13880", "procedure": "as §1"}, "Kleb. pneumo. SK 1200": {"tested_on": "Kleb. pneumo. SK 1200", "test": "in vitro MIC testing, Kleb. pneumo. SK 1200", "assay_type": "cell-based", "procedure": "as §1"}, "Pseudo. aerug. HH 63": {"tested_on": "Pseudo. aerug. HH 63", "test": "in vitro MIC testing, Pseudo. aerug. HH 63", "assay_type": "cell-based", "procedure": "as §1"}, "[2]": {"tested_on": "Entero. aerog. ATCC 13048", "test": "in vitro MIC testing, Entero. aerog. ATCC 13048", "assay_type": "cell-based", "procedure": "as §1"}, "Kleb. pneumo. 4200": {"tested_on": "Kleb. pneumo. 4200", "test": "in vivo mouse protection test, Kleb. pneumo. 4200", "conditions": "sc, subcutaneous injection, against Kleb. pneumo. 4200", "from_the_text": "(§2) 4200 upon subcutaneous injection."}, "Proteus morgani 179": {"tested_on": "Proteus morgani 179", "test": "in vitro MIC testing, Proteus morgani 179", "assay_type": "cell-based", "procedure": "as §1"}, "E. coli 12140": {"tested_on": "E. coli 12140", "test": "in vivo mouse protection test, E. coli 12140", "conditions": "Escherichia coli, sc; subcutaneous injection; against E. coli 12140", "from_the_text": "as §2"}, "Kleb. pneumo. SK 4200": {"tested_on": "Kleb. pneumo. SK 4200", "test": "in vitro MIC testing, Kleb. pneumo. SK 4200", "assay_type": "cell-based", "procedure": "as §1"}, "Entero. cloacae HH 31254": {"tested_on": "Entero. cloacae HH 31254", "test": "in vitro MIC testing, Entero. cloacae HH 31254", "assay_type": "cell-based", "conditions": "Enterobacter cloacae, HH31254", "procedure": "as §1"}}, "note": "Like-named read-outs stand apart in the source and are kept apart here."}
{"smiles": "O=C([O-])Cc1nnc(SCC2=C(C(=O)[O-])N3C(=O)C(NC(=O)[C@H](O)c4ccccc4)[C@H]3SC2)o1.[Na+].[Na+]", "note": "(stereo partly drawn) [7-D-Mandelamido-3-(5-carboxymethyl-1,3,4-oxadiazol-2-ylthiomethyl)-3-cephem-4-carboxylic acid disodium salt]", "values": [{"measurement": "MIC", "setting": "Shigella HH 117", "result": 0.4, "unit": "µg/mL"}, {"measurement": "MIC", "setting": "S. villaluz SK 70390", "result": 200, "unit": "µg/mL"}, {"measurement": "MIC", "setting": "E. coli SK 12140", "result": 0.8, "unit": "µg/mL"}, {"measurement": "MIC", "setting": "Salmonella ATCC 12176", "result": 0.8, "unit": "µg/mL"}, {"measurement": "MIC", "setting": "S. aureus SK 23390", "result": 0.8, "unit": "µg/mL"}, {"measurement": "MIC", "setting": "Strep. faecalis HH 34358", "result": 50, "unit": "µg/mL"}, {"measurement": "MIC", "setting": "E. coli HH 33779", "result": 3.1, "unit": "µg/mL"}, {"measurement": "MIC", "setting": "S. aureus HH 125", "result": 3.1, "unit": "µg/mL"}, {"measurement": "MIC", "setting": "[1]; Serratia", "result": 50, "unit": "µg/mL"}, {"measurement": "MIC", "setting": "Kleb. pneumo. SK 1200", "result": 0.4, "unit": "µg/mL"}, {"measurement": "MIC", "setting": "Pseudo. aerug. HH 63", "result": "> 200", "unit": "µg/mL"}]}
{"smiles": "O=C(O)Cc1nnc(SCC2=C(C(=O)O)N3C(=O)C(NC(=O)[C@H](O)c4ccccc4)[C@H]3SC2)o1", "note": "(stereo partly drawn) [7-D-Mandelamido-3-(5-carboxymethyl-1,3,4-oxadiazol-2-ylthiomethyl)-3-cephem-4-carboxylic acid]", "values": [{"measurement": "MIC", "setting": "Shigella HH 117", "result": 0.2, "unit": "µg/mL"}, {"measurement": "MIC", "setting": "S. villaluz SK 70390", "result": 50, "unit": "µg/mL"}, {"measurement": "MIC", "setting": "E. coli SK 12140", "result": 0.8, "unit": "µg/mL"}, {"measurement": "MIC", "setting": "[2]", "result": 3.1, "unit": "µg/mL"}, {"measurement": "ED50", "setting": "Kleb. pneumo. 4200", "result": 0.86, "unit": "mg/kg"}, {"measurement": "MIC", "setting": "Proteus morgani 179", "result": 6.3, "unit": "µg/mL"}, {"measurement": "ED50", "setting": "E. coli 12140", "result": 1.56, "unit": "mg/kg"}, {"measurement": "MIC", "setting": "Kleb. pneumo. SK 4200", "result": 0.8, "unit": "µg/mL"}, {"measurement": "MIC", "setting": "Salmonella ATCC 12176", "result": 0.8, "unit": "µg/mL"}, {"measurement": "MIC", "setting": "S. aureus SK 23390; in vitro, S. aureus SK 23390, read-out: MIC", "result": 0.4, "unit": "µg/mL"}, {"measurement": "MIC", "setting": "Strep. faecalis HH 34358; in vitro, Strep. faecalis HH 34358, read-out: MIC", "result": 12.5, "unit": "µg/mL"}, {"measurement": "MIC", "setting": "E. coli HH 33779", "result": 1.6, "unit": "µg/mL"}, {"measurement": "MIC", "setting": "S. aureus HH 125; in vitro, S. aureus HH 125, read-out: MIC", "result": 1.6, "unit": "µg/mL"}, {"measurement": "MIC", "setting": "[1]; in vitro, Serratia marc. ATCC 13880, read-out: MIC", "result": 25, "unit": "µg/mL"}, {"measurement": "MIC", "setting": "Kleb. pneumo. SK 1200; in vitro, Kleb. pneumo. SK 1200, read-out: MIC", "result": 0.8, "unit": "µg/mL"}, {"measurement": "MIC", "setting": "Entero. cloacae HH 31254", "result": 1.6, "unit": "µg/mL"}, {"measurement": "MIC", "setting": "Pseudo. aerug. HH 63", "result": "> 200", "unit": "µg/mL"}]}
